Data reported in patent US8211662B2, “Nitroreductase enzymatic substrates” (Biomerieux, priority 2007, dated 2012).

Tests used:
[1] = system: Morganella morganii 462403 (wild); experiment: Nitroreductase detection on Columbia agar, colonies read under UV; format: cell-based; set-up: key to Intensity of fluorescence, Morganella morganii 462403 / F: fluorescence (intensity), Morganella morganii 462403 (wild) / Intensity of the fluorescence, Morganella morganii 462403 (wild): − = no fluorescence detected; +/− = weak fluorescence; + = medium fluorescence; ++ = strong fluorescence; details: 100 mg/l in Columbia agar, 24 h 37° C., UV 360-365 nm
Description: (§1) A mass of 40 mg of each substrate was dissolved in 4 ml of dimethylformamide (DMF). This solution was entirely taken up in 400 ml of Columbia agar autoclaved beforehand and kept molten at 50° C. The final concentration for each substrate was 100 mg/l.
(§2) Each of the media was distributed into Petri dishes 90 mm in diameter, in a proportion of 20 ml per dish.
(§3) 18 microorganism strains derived from collections and belonging to various species of bacteria and of yeasts were inoculated onto these media by semi-quantitative isolation of 10 μl of a suspension at 0.5 McFarland diluted to 1/20. The media were incubated for 24 hours at 37° C., then the colonies formed were examined visually under UV illumination at 360-365 nm.

[2] = system: S. epidermidis 2 strains; experiment: Detection of various strains of S. aureus in the presence of substrates; format: cell-based
Description: as §1, §2
18 microorganism strains derived from collections and belonging to various species of bacteria and of yeasts were inoculated onto these media by semi-quantitative isolation of 10 μl of a suspension at 0.5 McFarland diluted to 1/20. […]

[3] = system: Enterococcus 6 strains; experiment: as above; format: cell-based
[4] = system: S. aureus (including MRSA) 10 strains; experiment: as above; format: cell-based, Staphylococcus aureus; details: for No. of strains detected, S. aureus (including MRSA): 10 strains
[5] = system: Candida glabrata NCPF 3943; experiment: Nitroreductase detection on Columbia agar, colonies read under UV; format: cell-based; set-up: key to Intensity of fluorescence, Candida glabrata NCPF3943 / F: fluorescence (intensity), Candida glabrata NCPF 3943 / Intensity of the fluorescence, Candida glabrata NCPF 3943: − = no fluorescence detected; +/− = weak fluorescence; + = medium fluorescence; ++ = strong fluorescence; details: 100 mg/l in Columbia agar, 24 h 37° C., UV 360-365 nm
Description: as §1, §2, §3

[6] = system: Enterococcus faecalis NCTC 775; experiment: as above; format: cell-based; set-up: key: − = no fluorescence detected; +/− = weak fluorescence; + = medium fluorescence; ++ = strong fluorescence; details: 100 mg/l in Columbia agar, 24 h 37° C., UV 360-365 nm
Description: as §1, §2, §3

[7] = system: Enterobacter cloacae NCTC 11936; experiment: as above; format: cell-based; set-up: key: − = no fluorescence detected; +/− = weak fluorescence; + = medium fluorescence; ++ = strong fluorescence; details: 100 mg/l in Columbia agar, 24 h 37° C., UV 360-365 nm
Description: as §1, §2, §3

[8] = system: Candida albicans ATCC 90028; experiment: as above; format: cell-based; set-up: key: − = no fluorescence detected; +/− = weak fluorescence; + = medium fluorescence; ++ = strong fluorescence; details: 100 mg/l in Columbia agar, 24 h 37° C., UV 360-365 nm
Description: as §1, §2, §3

[9] = system: Serratia marcescens NCTC 10211; experiment: as above; format: cell-based; set-up: key: − = no fluorescence detected; +/− = weak fluorescence; + = medium fluorescence; ++ = strong fluorescence; details: 100 mg/l in Columbia agar, 24 h 37° C., UV 360-365 nm
Description: as §1, §2, §3

[10] = system: Staphylococcus aureus NCTC 6571; experiment: as above; format: cell-based; set-up: key: − = no fluorescence detected; +/− = weak fluorescence; + = medium fluorescence; ++ = strong fluorescence; details: 100 mg/l in Columbia agar, 24 h 37° C., UV 360-365 nm
Description: as §1, §2, §3

[11] = system: Streptococcus pyogenes NCTC 8306; experiment: as above; format: cell-based; set-up: key: − = no fluorescence detected; +/− = weak fluorescence; + = medium fluorescence; ++ = strong fluorescence; details: 100 mg/l in Columbia agar, 24 h 37° C., UV 360-365 nm
Description: as §1, §2, §3

[12] = system: Yersinia enterocolitica NCTC 11176; experiment: as above; format: cell-based; set-up: key: − = no fluorescence detected; +/− = weak fluorescence; + = medium fluorescence; ++ = strong fluorescence; details: 100 mg/l in Columbia agar, 24 h 37° C., UV 360-365 nm
Description: as §1, §2, §3

[13] = system: Escherichia coli NCTC 10418; experiment: as above; format: cell-based; set-up: key: − = no fluorescence detected; +/− = weak fluorescence; + = medium fluorescence; ++ = strong fluorescence; details: 100 mg/l in Columbia agar, 24 h 37° C., UV 360-365 nm
Description: as §1, §2, §3

[14] = system: Bacillus subtilis NCTC 9372; experiment: as above; format: cell-based; set-up: key: − = no fluorescence detected; +/− = weak fluorescence; + = medium fluorescence; ++ = strong fluorescence; details: 100 mg/l in Columbia agar, 24 h 37° C., UV 360-365 nm
Description: as §1, §2, §3

[15] = system: Staphylococcus epidermidis NCTC 11047; experiment: as above; format: cell-based; set-up: key: − = no fluorescence detected; +/− = weak fluorescence; + = medium fluorescence; ++ = strong fluorescence; details: 100 mg/l in Columbia agar, 24 h 37° C., UV 360-365 nm
Description: as §1, §2, §3

[16] = system: Listeria monocytogenes NCTC 11994; experiment: as above; format: cell-based; set-up: key: − = no fluorescence detected; +/− = weak fluorescence; + = medium fluorescence; ++ = strong fluorescence; details: 100 mg/l in Columbia agar, 24 h 37° C., UV 360-365 nm
Description: as §1, §2, §3

[17] = system: Pseudomonas aeruginosa NCTC 10662; experiment: as above; format: cell-based; set-up: key: − = no fluorescence detected; +/− = weak fluorescence; + = medium fluorescence; ++ = strong fluorescence; details: 100 mg/l in Columbia agar, 24 h 37° C., UV 360-365 nm
Description: as §1, §2, §3

[18] = system: MRSA NCTC 11939; experiment: as above; format: cell-based, Staphylococcus aureus; set-up: key: − = no fluorescence detected; +/− = weak fluorescence; + = medium fluorescence; ++ = strong fluorescence; details: 100 mg/l in Columbia agar, 24 h 37° C., UV 360-365 nm
Description: as §1, §2, §3

[19] = system: Staph spp 12 strains; experiment: Detection of various strains of S. aureus in the presence of substrates; format: cell-based
[20] = system: Salmonella typhimurium NCTC 74; experiment: Nitroreductase detection on Columbia agar, colonies read under UV; format: cell-based; set-up: key to Intensity of fluorescence, Salmonella typhimurium NCTC 74 / F: fluorescence (intensity), Salmonella typhimurium NCTC 74 / Intensity of the fluorescence, Salmonella typhimurium NCTC 74: − = no fluorescence detected; +/− = weak fluorescence; + = medium fluorescence; ++ = strong fluorescence; details: for Salmonella typhimurium result with the substrate: table 2
Description: as §1, §2, §3

[21] = system: Acinetobacter baumanii ATCC 19606; experiment: as above; format: cell-based; set-up: key to Intensity of fluorescence, Acinetobacter baumanii ATCC 19606 / Intensity of the fluorescence, Acinetobacter baumanii ATCC 19606: − = no fluorescence detected; +/− = weak fluorescence; + = medium fluorescence; ++ = strong fluorescence
Description: as §1, §2, §3

[22] = system: Citrobacter freundii 46262 (wild); experiment: as above; format: cell-based; set-up: key: − = no fluorescence detected; +/− = weak fluorescence; + = medium fluorescence; ++ = strong fluorescence; details: Table 4; 100 mg/l in Columbia agar, 24 h 37° C., UV 360-365 nm
Description: as §1, §2, §3

[23] = system: Enterococcus faecium NCTC 7171; experiment: as above; format: cell-based; set-up: key: − = no fluorescence detected; +/− = weak fluorescence; + = medium fluorescence; ++ = strong fluorescence; details: Table 4; 100 mg/l in Columbia agar, 24 h 37° C., UV 360-365 nm
Description: as §1, §2, §3

[24] = system: Providencia rettgeri NCTC 7475; experiment: as above; format: cell-based; set-up: key: − = no fluorescence detected; +/− = weak fluorescence; + = medium fluorescence; ++ = strong fluorescence; details: Table 4; 100 mg/l in Columbia agar, 24 h 37° C., UV 360-365 nm
Description: as §1, §2, §3

[25] = 100 mg/l in Columbia agar, 24 h 37° C., UV 360-365 nm
[26] = Table 4, 100 mg/l in Columbia agar, 24 h 37° C., UV 360-365 nm

| Structure (SMILES) | Intensity of fluorescence, Morganella morganii 462403 [1] | No. of strains detected, S. epidermidis ([2]; 24 h) | No. of strains detected, S. epidermidis ([2]; 48 h) | No. of strains detected, Enterococcus ([3]; 24 h) | No. of strains detected, Enterococcus ([3]; 48 h) | Distinguishing or identifying Staphylococcus aureus strains, in particular MRSA, from most of the other Gram-positive bacterial strains [4] | No. of strains detected, S. aureus (including MRSA) ([4]; 24 h) | No. of strains detected, S. aureus (including MRSA) ([4]; 48 h) | Intensity of fluorescence, Candida glabrata NCPF3943 [5] | Intensity of fluorescence, Enterococcus faecalis NCTC 775 [6] | Intensity of fluorescence, Enterobacter cloacae NCTC 11936 [7] | Intensity of fluorescence, Candida albicans ATCC 90028 [8] | Intensity of fluorescence, Serratia marcescens NCTC 10211 [9] | Intensity of fluorescence, Staphylococcus aureus NCTC 6571 [10] | Intensity of fluorescence, Streptococcus pyogenes NCTC 8306 [11] | Intensity of fluorescence, Yersinia enterocolitica NCTC 11176 [12] | Intensity of fluorescence, Escherichia coli NCTC 10418 [13] | Intensity of fluorescence, Bacillus subtilis NCTC 9372 [14] | Intensity of fluorescence, Staphylococcus epidermidis NCTC 11047 [15] | Intensity of fluorescence, Listeria monocytogenes NCTC 11994 [16] | other results |
| --- | --- | --- | --- | --- | --- | --- | --- | --- | --- | --- | --- | --- | --- | --- | --- | --- | --- | --- | --- | --- | --- |
| COc1cc(-c2nc3ccccc3o2)c([N+](=O)[O-])cc1OC [Substrate 6] | +/− | 0 | 2 | 0 | 1 | make it possible to distinguish or identify the Staphylococcus aureus strains | 10 | 10 | − | − | + | − | + | + | − | − | + | − | − | − | Intensity of fluorescence, Pseudomonas aeruginosa NCTC 10662 [17]: −; Intensity of fluorescence, Staphylococcus aureus NCTC 11939 [18]: +; No. of strains detected, Staph spp ([19]; 24 h): 12; No. of strains detected, Staph spp ([19]; 48 h): 12; Intensity of fluorescence, Salmonella typhimurium NCTC 74 [20, 25]: −; Salmonella typhimurium result with the substrate [20]: negative; Intensity of fluorescence, Acinetobacter baumanii ATCC 19606 [21, 25]: − |
| O=[N+]([O-])c1ccc(F)cc1-c1nc2ccccc2o1 [Substrate 7] | ++ | 0 | 2 | 0 | 1 | make it possible to distinguish or identify the Staphylococcus aureus strains | 10 | 10 | − | − | ++ | − | ++ | ++ | − | − | ++ | − | − | − | Intensity of fluorescence, Pseudomonas aeruginosa NCTC 10662 [17]: −; Intensity of fluorescence, Staphylococcus aureus NCTC 11939 [18]: ++; No. of strains detected, Staph spp ([19]; 24 h): 12; No. of strains detected, Staph spp ([19]; 48 h): 12; Intensity of fluorescence, Salmonella typhimurium NCTC 74 [20, 25]: ++; Salmonella typhimurium result with the substrate [20]: strongly positive; Intensity of fluorescence, Acinetobacter baumanii ATCC 19606 [21, 25]: +; Distinguishing Pseudomonas aeruginosa from Acinetobacter baumanii ([21]; table 2): make it possible to distinguish Pseudomonas aeruginosa from Acinetobacter baumanii |
| CN1CCN(c2ccc([N+](=O)[O-])c(-c3nc4ccccc4s3)c2)CC1 [Substrate 23] |  |  |  |  |  |  |  |  |  |  |  |  |  |  |  |  |  |  |  |  | Intensity of the fluorescence, Morganella morganii 462403 (wild) ([1]; Table 4): +; Intensity of the fluorescence, Candida glabrata NCPF 3943 ([5]; Table 4): −; Intensity of the fluorescence, Enterococcus faecails NCTC 775 ([6]; Table 4): −; Intensity of the fluorescence, Enterobacter cloacae NCTC 11936 ([7]; Table 4): +; Intensity of the fluorescence, Candida albicans ATCC 90028 ([8]; Table 4): −; Intensity of the fluorescence, Citrobacter freundii 46262 (wild) [22]: +; Intensity of the fluorescence, Serratia marcescens NCTC 10211 ([9]; Table 4): +; Intensity of the fluorescence, Staphylococcus aureus NCTC 6571 ([10]; Table 4): V.; Intensity of the fluorescence, Streptococcus pyogenes NCTC 8306 ([11]; Table 4): −; Intensity of the fluorescence, Yersinia enterocolitica NCTC 11176 ([12]; Table 4): −; Intensity of the fluorescence, Escherichia coli NCTC 10418 ([13]; Table 4): −; Intensity of the fluorescence, Bacillus subtilis NCTC 9372 ([14]; Table 4): −; Intensity of the fluorescence, Enterococcus faecium NCTC 7171 [23]: −; Intensity of the fluorescence, Staphylococcus epidermidis NCTC 11047 ([15]; Table 4): −; Intensity of the fluorescence, Providencia rettgeri NCTC 7475 [24]: +; Intensity of the fluorescence, Listeria monocytogenes NCTC 11994 ([16]; Table 4): −; Intensity of the fluorescence, Pseudomonas aeruginosa NCTC 10662 ([17]; Table 4): +; Intensity of the fluorescence, MRSA NCTC 11939 ([18]; Table 4): +/−; Intensity of the fluorescence, Salmonella typhimurium NCTC 74 [20, 26]: +; Intensity of the fluorescence, Acinetobacter baumanii ATCC 19606 [21, 26]: − |
